Data set [1] deals with gastric lesions. The experiment in a line: HCl-ethanol-induced gastric lesions in rats (cytoprotective effect). Format: in vivo, Male Sprague-Dawley rats. The settings on record: Rattus norvegicus, po; for ED50: 30 minutes before HCl-ethanol; for inhibition in vivo at 10 mg/kg: 10 mg/kg p.o. in 1% CMC, 30 minutes before 150 mM HCl-60% ethanol, 3 rats per group, lesions measured 1 hour later, read-out: Inhibition (inhibitory rate of ulcer length vs control). How it is done:
Male Sprague-Dawley rats (body weight: 220-240 g, 7 weeks) were deprived of food but allowed free access to water for 24 hours prior to the experiments. Each control and experimental group consisted of 3 rats. One hundred and fifty mM HCl-60% ethanol (v/v) was given p.o. in a volume of 1 ml/rat. The animals were sacrificed 1 hour later, and the stomach was removed and inflated by injecting 10 ml of 2% formalin to fix the inner and outer layers of the gastric walls. Subsequently, the stomach was incised along the greater curvature and washed gently with ice-cold saline.
Gastric lesions were identified in the grandular portion. The length of lesions was measured in millimeters (mm) under a dissecting microscope with a square grid (×10), and lesion severity was expressed as the total length of lesions per stomach.
Test compound (I) (10 mg/kg), suspended in 1% carboxymethyl cellulose (CMC), or 1% carboxymethyl cellulose for the control was orally administered 30 minutes before HCl-ethanol administration. The ulcer length of the treated group and the control group were compared and the inhibitory rates were calculated.

Data set [2] has as its system ulcer. Description: Restraint-immersion stress ulcer in rats (anti-stress ulcer activity). It is filed as in vivo, Male Sprague-Dawley rats. The settings on record: 32 mg/kg p.o. in 0.1% MC, 5 minutes before restraint-immersion for 7 hours at 22° C. How it is done: Male Sprague-Dawley rats (body weight: 230-280 g) were placed under restraint in a stress cage after fasting for 15 hours, and immersed vertically in the water bath kept at 22° C. to the level of the xiphoid of the animal. After restraint-immersion for 7 hours the animals were killed, and the stomach from each animal was fixed with formalin.
Each stomach was opened by cutting along the greater curvature, and ulcer area (mm^2) was measured with a stereoscopic microscope. Ulcer indices of the treated group and the control group were compared, and inhibitory rates were calculated. The tested compound, either 4,6-bis(1-pyrazolyl) pyrimidine (32 mg/kg) suspended in 0.1% methylcellulose (MC) or 0.1% methylcellulose (MC) alone, was orally administered 5 minutes before the restraint-immersion.

The nature of data set [3]: Oral acute toxicity (LD50) in rats. The settings on record: rat, in vivo, 0.3% CMC-Na suspension, 72 hours observation, 10 rats per group, Probit method. On the procedure:
A 0.3% CMC-Na suspension of a test compound was orally administered to groups of Slc:Wistar/KY rats (male: 90-120 g), each group consisting of 10 rats. […] LD50 values were calculated by the Probit method to be as follows: […]

Molecules are shown by their SMILES.

Take `c1cnn(-c2cc(-n3cccn3)ncn2)c1` [Example 1, 4,6-Bis(1-pyrazolyl)pyrimidine]: in data set [1], the median effective dose (ED50) came to 0.72 mg/kg and the inhibition in vivo at 10 mg/kg came out at 95.6%. In addition, the “Inhibition (inhibitory rate of ulcer index vs control)” value in data set [2] amounted to 73.6%. In data set [3], this compound showed a median lethal dose (LD50) at 72 h greater than 3000 mg/kg.
On to `c1cn(-c2ccnc(-n3ccnc3)n2)cn1` [Example 4, 2,4-Bis(1-imidazolyl)pyrimidine], for which, in data set [1], the inhibition in vivo at 10 mg/kg was 78.2%.
Turning to `COc1cc(C)nc(-n2cccn2)n1` [Example 6, 4-Methoxy-6-methyl-2-(1-pyrazolyl)pyrimidine], the inhibition in vivo at 10 mg/kg in data set [1] is 87.2%.
As to `COc1cc(C)nc(-n2ccnc2)n1` [Example 7, 2-(1-Imidazolyl)-4-methoxy-6-methylpyrimidine], the inhibition in vivo at 10 mg/kg in data set [1] came out at 82.6%.
`COc1nc(C)cc(-n2cncn2)n1` [Example 9, 2-Methoxy-6-methyl-4-(1,2,4-triazol-1-yl)pyrimidine]: in data set [1], the inhibition in vivo at 10 mg/kg stood at 75.7%.
On to `CCOc1cc(C)nc(-n2ccnc2)n1` [Example 10, 4-Ethoxy-2-(1-imidazolyl)-6-methylpyrimidine], for which the inhibition in vivo at 10 mg/kg in data set [1] was 80.7%.
In the case of `CCOc1cc(C)nc(-n2cccn2)n1` [Example 11, 4-Ethoxy-6-methyl-2-(1-pyrazolyl)pyrimidine], the inhibition in vivo at 10 mg/kg in data set [1] was 78.3%.
With `COc1cc(-n2cccn2)ncn1` [Example 15, 6-Methoxy-4-(1-pyrazolyl)pyrimidine], the inhibition in vivo at 10 mg/kg in data set [1] stood at 95.6%.
Consider `COc1cc(-n2ccnc2)ncn1` [Example 16, 4-(1-Imidazolyl)-6-methoxypyrimidine], for which, in data set [1], the median effective dose (ED50) came out at 5.6 mg/kg and the inhibition in vivo at 10 mg/kg came out at 91.3%. This compound registered an LD50 at 72 h in data set [3] of 400 mg/kg.
Take `CC(C)Oc1cc(-n2cccn2)ncn1` [Example 17, 6-Isopropoxy-4-(1-pyrazolyl)pyrimidine]: the inhibition in vivo at 10 mg/kg in data set [1] stood at 79.8%.
Same read-out and setting: as for `c1cnn(-c2cc(N3CCCCC3)ncn2)c1` [Example 19, 6-Piperidino-4-(1-pyrazolyl)pyrimidine], the figure is 79.2%.

The ED50 is the dose at which the effect has come halfway, by size or by number of responders. The low end stands for greater potency, the high end for weaker potency. What is called LD50 is the dose at which mortality reaches 50%. The low end stands for a more toxic substance, the high end for a less toxic substance.

For the origin of these results see patent publication US4849424A, “Pyrimidine derivatives” (Nissin Shokuhin Kabushiki Kaisha, priority 1986, dated 1989).
